Tests used:
Format in all cases: physicochemical
[1] = Thermogravimetric analysis (TGA); settings: heated at 10° C./min under nitrogen
Protocol: TGA: Samples were analyzed using a TA Instruments TGA Discovery 550. The sample were placed in a tared aluminum tray and automatically weighed, and then the samples were brought to the specified temperatures at a rate of 10° C./min under the protection of nitrogen. In the present invention, the TGA graphs of the above three samples are illustrated in the form of overlay, as shown in FIG. 5.

[2] = Dynamic vapor sorption (DVS); settings: for DVS weight gain at an RH of 80%: RH 80%, 25±1° C.; for Mass change (%) - ref, Delay: desorption minus sorption
Protocol: DVS: Samples were analyzed using an Intrinsic DVS ([…] UK). The amount of test sample was about 20-30 mg. The temperature of the test chamber was controlled between 25±1° C., the relative humidity was increased from 0% to 90% and then decreased to 0% at a rate of 10%/h, and the quality data was recorded every 20 s.

Solubility test in water = settings: purified water, room temperature, stirred 2 hours
Protocol: The excess crystals were dissolved in an amount of purified water in a 4 ml vial at room temperature. The mass of an empty watch glass was recorded as m1.
The suspension was stirred for 2 hours and then filtered through a […] into an empty watch glass, the mass m2 at this point was recorded for this watch glass, and the remaining solid was used for XRPD analysis.
The watch glass containing the filtrate was dried in an oven at 40° C. After drying, the mass m3 was recorded and the solubility data of the substrate could be calculated. The masses of the watch glass as well as the amounts of solid and solution are listed in Table 6, and the experimental results are shown in Table 7 and FIG. 12.

[3] = Solubility in buffer of crystalline form I
Text: The solubility of crystalline form I of the present invention was investigated at room temperature in buffers at pH 1.2, 4.5 and 6.8. The procedure was consistent with that of the solubility test in water. The masses of the watch glass as well as the amounts of solid and solution are listed in Table 8, and the experimental results are shown in Table 9.

[4] = Stability test (crystalline form by XRPD); settings: one week
Protocol: 10 mg of the solid was placed into a 2 ml glass vial and the vial was transferred to a stability chamber. The experimental conditions were 25° C./92.5% RH, 40° C./75% RH, 60° C., and light, respectively.

SMILES | TGA weight loss (wt %) [1] | DVS weight gain at an RH of 80% [2] | Solubility in water (Solubility test in water) | Mass change (%) - ref, Desorption ([2]; Cycle 1, objective RH 0.0%) | Mass change (%) - ref, Sorption ([2]; Cycle 1, objective RH 0.0%) | Mass change (%) - ref, Desorption ([2]; Cycle 1, objective RH 10.0%) | Mass change (%) - ref, Sorption ([2]; Cycle 1, objective RH 10.0%) | Mass change (%) - ref, Delay ([2]; Cycle 1, objective RH 10.0%) | Mass change (%) - ref, Desorption ([2]; Cycle 1, objective RH 20.0%) | Mass change (%) - ref, Sorption ([2]; Cycle 1, objective RH 20.0%) | Mass change (%) - ref, Delay ([2]; Cycle 1, objective RH 20.0%) | Mass change (%) - ref, Desorption ([2]; Cycle 1, objective RH 30.0%) | Mass change (%) - ref, Sorption ([2]; Cycle 1, objective RH 30.0%) | Mass change (%) - ref, Delay ([2]; Cycle 1, objective RH 30.0%) | Mass change (%) - ref, Desorption ([2]; Cycle 1, objective RH 40.0%) | Mass change (%) - ref, Sorption ([2]; Cycle 1, objective RH 40.0%) | Mass change (%) - ref, Delay ([2]; Cycle 1, objective RH 40.0%) | Mass change (%) - ref, Desorption ([2]; Cycle 1, objective RH 50.0%) | Mass change (%) - ref, Sorption ([2]; Cycle 1, objective RH 50.0%) | Mass change (%) - ref, Delay ([2]; Cycle 1, objective RH 50.0%) | further results
CCCC(=O)N[C@H]1C(O)O[C@H](COC(=O)CCC)[C@@H](OC(=O)CCC)[C@@H]1O (stereo partly drawn) [API, 2-N-4,6-di-O-tributyryl-D-glucosamine] | 0.966 wt % | 2.440% | 8.12 mg/g | – | – | – | – | – | – | – | – | – | – | – | – | – | – | – | – | – | –
CCCC(=O)N[C@H]1C(O)O[C@H](COC(=O)CCC)[C@@H](OC(=O)CCC)[C@@H]1O (stereo partly drawn) [Crystalline Form I, 2-N-4,6-di-O-tributyryl-D-glucosamine] | 0.344 wt % | 1.037% | 9.02 mg/g | −0.022% | 0.001% | 0.082% | 0.092% | −0.010% | 0.160% | 0.175% | −0.015% | 0.270% | 0.276% | −0.006% | 0.409% | 0.417% | −0.007% | 0.498% | 0.502% | −0.003% | Mass change (%) - ref, Desorption ([2]; Cycle 1, objective RH 60.0%): 0.627%; Mass change (%) - ref, Sorption ([2]; Cycle 1, objective RH 60.0%): 0.626%; Mass change (%) - ref, Delay ([2]; Cycle 1, objective RH 60.0%): 0.001%; Mass change (%) - ref, Desorption ([2]; Cycle 1, objective RH 70.0%): 0.789%; Mass change (%) - ref, Sorption ([2]; Cycle 1, objective RH 70.0%): 0.800%; Mass change (%) - ref, Delay ([2]; Cycle 1, objective RH 70.0%): −0.011%; Mass change (%) - ref, Desorption ([2]; Cycle 1, objective RH 80.0%): 1.031%; Mass change (%) - ref, Sorption ([2]; Cycle 1, objective RH 80.0%): 1.037%; Mass change (%) - ref, Delay ([2]; Cycle 1, objective RH 80.0%): −0.006%; Mass change (%) - ref, Desorption ([2]; Cycle 1, objective RH 90.0%): 1.662%; Mass change (%) - ref, Sorption ([2]; Cycle 1, objective RH 90.0%): 1.662%; Solubility in water (Solubility test in water; listed as crystalline form I): 9.08 mg/g; Solubility in buffer ([3]; buffer pH 1.2, room temperature): 4.08 mg/g; Solubility in buffer ([3]; buffer pH 4.5, room temperature): 6.58 mg/g; Solubility in buffer ([3]; buffer pH 6.8, room temperature): 10.02 mg/g; Whether the crystalline form is changed ([4]; 25° C., 92.5% RH): No; Whether the crystalline form is changed ([4]; 40° C., 75% RH): No; Whether the crystalline form is changed ([4]; 60° C.): No; Whether the crystalline form is changed ([4]; Light): No
CCCC(=O)N[C@H]1C(O)O[C@H](COC(=O)CCC)[C@@H](OC(=O)CCC)[C@@H]1O (stereo partly drawn) [Crystalline Form II, 2-N-4,6-di-O-tributyryl-D-glucosamine] | None | 0.869% | 9.08 mg/g | 0.023% | 0.000% | 0.552% | 0.086% | 0.466% | 0.659% | 0.165% | 0.494% | 0.777% | 0.257% | 0.520% | 0.913% | 0.324% | 0.590% | 0.968% | 0.368% | 0.600% | Mass change (%) - ref, Desorption ([2]; Cycle 1, objective RH 60.0%): 1.080%; Mass change (%) - ref, Sorption ([2]; Cycle 1, objective RH 60.0%): 0.457%; Mass change (%) - ref, Delay ([2]; Cycle 1, objective RH 60.0%): 0.623%; Solubility in water (Solubility test in water; listed as crystalline form II): 9.02 mg/g

— US20240279265A1, “CRYSTAL FORMS OF GLUCOSAMINE DERIVATIVE, AND PREPARATION METHOD THEREFOR AND USE THEREOF” (RISEN (SUZHOU) PHARMA TECH CO., LTD., priority 2021, published 2024)
